From BindingDB's records for PubMed 32711292 (n/a, 2020)

How the values were obtained:
Maltase-glucoamylase [1] = biological target: T1, Maltase-glucoamylase (Homo sapiens, UniProt O43451); assay: Inhibition of alpha-glucosidase (unknown origin) by HPLC analysis
Maltase-glucoamylase [2] = biological target: T1, Maltase-glucoamylase; assay: Inhibition of alpha-glucosidase (unknown origin)

T1 sequence (O43451 whole entry): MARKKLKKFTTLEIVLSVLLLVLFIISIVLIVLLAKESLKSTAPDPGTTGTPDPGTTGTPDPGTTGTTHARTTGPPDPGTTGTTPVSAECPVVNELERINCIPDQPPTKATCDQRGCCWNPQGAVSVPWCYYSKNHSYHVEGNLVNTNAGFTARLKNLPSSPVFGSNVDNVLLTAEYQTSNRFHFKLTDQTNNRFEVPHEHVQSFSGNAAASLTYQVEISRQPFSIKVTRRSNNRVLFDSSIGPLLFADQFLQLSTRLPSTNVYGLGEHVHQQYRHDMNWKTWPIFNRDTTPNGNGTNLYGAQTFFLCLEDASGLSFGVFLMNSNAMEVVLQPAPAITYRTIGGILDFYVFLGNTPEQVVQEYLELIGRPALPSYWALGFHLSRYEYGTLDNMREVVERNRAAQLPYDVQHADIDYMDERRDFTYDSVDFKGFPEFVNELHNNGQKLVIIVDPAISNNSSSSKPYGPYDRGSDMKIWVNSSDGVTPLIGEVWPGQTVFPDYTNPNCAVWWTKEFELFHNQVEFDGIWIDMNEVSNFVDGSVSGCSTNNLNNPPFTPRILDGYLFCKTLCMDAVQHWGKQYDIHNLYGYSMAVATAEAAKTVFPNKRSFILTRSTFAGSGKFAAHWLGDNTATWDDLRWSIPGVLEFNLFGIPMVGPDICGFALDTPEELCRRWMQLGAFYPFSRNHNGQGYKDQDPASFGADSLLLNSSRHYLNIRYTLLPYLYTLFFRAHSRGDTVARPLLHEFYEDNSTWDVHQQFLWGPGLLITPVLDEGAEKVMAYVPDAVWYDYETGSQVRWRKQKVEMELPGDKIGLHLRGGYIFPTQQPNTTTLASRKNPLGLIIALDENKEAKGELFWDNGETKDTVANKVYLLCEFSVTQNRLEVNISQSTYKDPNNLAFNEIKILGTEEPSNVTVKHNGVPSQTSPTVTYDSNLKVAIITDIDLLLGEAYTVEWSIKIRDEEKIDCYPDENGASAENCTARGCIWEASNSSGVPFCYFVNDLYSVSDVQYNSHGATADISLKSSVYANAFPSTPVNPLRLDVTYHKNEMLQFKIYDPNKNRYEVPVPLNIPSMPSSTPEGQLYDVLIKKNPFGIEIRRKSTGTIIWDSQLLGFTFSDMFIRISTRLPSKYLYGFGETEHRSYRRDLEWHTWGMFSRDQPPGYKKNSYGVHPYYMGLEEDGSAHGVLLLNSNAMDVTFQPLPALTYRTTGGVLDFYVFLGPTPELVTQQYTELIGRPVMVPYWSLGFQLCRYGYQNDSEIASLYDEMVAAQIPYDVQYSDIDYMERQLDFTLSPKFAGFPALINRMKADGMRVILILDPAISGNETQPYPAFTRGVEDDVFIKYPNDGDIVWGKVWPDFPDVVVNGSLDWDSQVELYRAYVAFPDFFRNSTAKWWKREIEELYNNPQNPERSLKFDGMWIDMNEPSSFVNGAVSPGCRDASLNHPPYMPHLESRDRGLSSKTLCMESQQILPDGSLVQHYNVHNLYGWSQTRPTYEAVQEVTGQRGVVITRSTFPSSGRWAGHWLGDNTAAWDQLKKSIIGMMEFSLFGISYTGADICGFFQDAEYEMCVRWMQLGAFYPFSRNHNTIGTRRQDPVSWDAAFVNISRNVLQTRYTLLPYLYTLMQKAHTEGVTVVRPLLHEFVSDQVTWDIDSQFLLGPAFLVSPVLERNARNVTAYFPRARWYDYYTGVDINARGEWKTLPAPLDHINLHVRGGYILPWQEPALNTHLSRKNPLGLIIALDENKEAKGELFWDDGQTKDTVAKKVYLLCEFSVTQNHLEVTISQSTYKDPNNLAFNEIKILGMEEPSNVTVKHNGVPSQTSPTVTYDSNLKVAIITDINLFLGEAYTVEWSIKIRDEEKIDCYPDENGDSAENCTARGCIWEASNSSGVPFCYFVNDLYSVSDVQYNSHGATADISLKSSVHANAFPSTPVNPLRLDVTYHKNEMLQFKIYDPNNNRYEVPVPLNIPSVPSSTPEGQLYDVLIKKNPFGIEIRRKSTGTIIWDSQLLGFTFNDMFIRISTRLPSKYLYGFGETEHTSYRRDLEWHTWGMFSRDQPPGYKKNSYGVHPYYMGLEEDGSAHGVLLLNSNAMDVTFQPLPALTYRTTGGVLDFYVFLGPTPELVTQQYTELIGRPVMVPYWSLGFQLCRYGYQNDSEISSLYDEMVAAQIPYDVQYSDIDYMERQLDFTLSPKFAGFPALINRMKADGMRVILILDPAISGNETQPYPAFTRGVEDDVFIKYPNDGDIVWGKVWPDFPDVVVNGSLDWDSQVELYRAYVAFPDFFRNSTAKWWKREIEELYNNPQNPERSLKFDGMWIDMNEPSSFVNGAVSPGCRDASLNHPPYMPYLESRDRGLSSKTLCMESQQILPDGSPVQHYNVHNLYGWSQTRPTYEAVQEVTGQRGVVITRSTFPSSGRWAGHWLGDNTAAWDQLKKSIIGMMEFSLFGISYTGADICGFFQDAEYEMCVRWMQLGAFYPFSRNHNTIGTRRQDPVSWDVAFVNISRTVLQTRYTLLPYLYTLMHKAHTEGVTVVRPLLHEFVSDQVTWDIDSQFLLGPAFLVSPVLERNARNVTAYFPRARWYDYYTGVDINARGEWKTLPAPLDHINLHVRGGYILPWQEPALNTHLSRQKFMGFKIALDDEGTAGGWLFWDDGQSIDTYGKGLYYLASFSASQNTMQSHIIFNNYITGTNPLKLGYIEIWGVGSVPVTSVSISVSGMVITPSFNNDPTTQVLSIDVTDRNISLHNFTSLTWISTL

Structure (SMILES)	IC50 (Maltase-glucoamylase [1])	IC50 (Maltase-glucoamylase [2])
COc1ccc(CCc2cc(O)c(O)c(OC)c2)cc1	200 µM	
COc1cc([C@@H]2Oc3cc(CCc4ccc(O)cc4)cc(OC)c3O[C@H]2CO)cc(OC)c1O	9460 µM	
COc1cc(CCc2cccc(O)c2)cc(O)c1O	214 µM	

Second part, the compound after the results:

IC50 (Maltase-glucoamylase [1])	IC50 (Maltase-glucoamylase [2])	Structure (SMILES)
	149 µM	COc1cc(O)cc(CCc2cccc(O)c2)c1 [Batatasin III (4)]
	103 µM	COc1cc(O)cc(CCc2ccc(O)c(OC)c2)c1 [GIGANTOL]
